This is an account of results in patent US7592347B2, “Piperazine derivates and their use for the treatment of neurological and psychiatric diseases” (Glaxo Group Limited, priority 2003, dated 2009).

SMILES strings stand for the structures. Where a name gives a salt, the structure may show the parent alone.

T1 sequence (Q9Y5N1 whole entry): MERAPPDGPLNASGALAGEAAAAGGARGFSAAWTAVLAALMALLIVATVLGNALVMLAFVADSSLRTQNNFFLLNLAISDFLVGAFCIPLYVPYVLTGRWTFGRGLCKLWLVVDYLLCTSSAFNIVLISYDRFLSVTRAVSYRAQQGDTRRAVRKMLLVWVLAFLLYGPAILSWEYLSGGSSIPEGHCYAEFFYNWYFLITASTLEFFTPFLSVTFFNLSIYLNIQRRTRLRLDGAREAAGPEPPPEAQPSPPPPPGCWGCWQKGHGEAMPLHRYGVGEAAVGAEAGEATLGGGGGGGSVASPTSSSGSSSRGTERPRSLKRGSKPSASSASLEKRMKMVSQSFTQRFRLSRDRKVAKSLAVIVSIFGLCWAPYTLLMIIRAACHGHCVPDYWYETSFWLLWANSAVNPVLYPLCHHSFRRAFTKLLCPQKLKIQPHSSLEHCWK

The experiment addresses T1, histamine H3 receptor (Homo sapiens, UniProt Q9Y5N1).
T1 construct: expressed in transfected cells; host or cells: CHO K1 cells carrying pSwitch, transfected with pGeneH3 and induced with mifepristone; clone 3H3; membranes
Briefly: Histamine H3 functional antagonist assay ([35S]GTPγS SPA, membranes of CHO K1 cells expressing human H3). Type of experiment: biochemical. Particulars: functional antagonism of histamine (0.3 μM) stimulated [35S]GTPγS binding, membranes of CHO K1 cells with human histamine H3. Here is the method: A membrane preparation containing histamine H3 receptors may be prepared in accordance with the following procedures:
Ligated DNA was transformed into competent DH5α E. coli host bacterial cells and plated onto Luria Broth (LB) agar containing Zeocin™ (an antibiotic which allows the selection of cells expressing the sh ble gene which is present on pGene and pSwitch) at 50 μg ml^−1. Colonies containing the re-ligated plasmid were identified by restriction analysis. DNA for transfection into mammalian cells was prepared from 250 ml cultures of the host bacterium containing the pGeneH3 plasmid and isolated using a DNA preparation kit (Qiagen Midi-Prep) as per manufacturers guidelines (Qiagen).
CHO K1 cells previously transfected with the pSwitch regulatory plasmid (InVitrogen) were seeded at 2×10e6 cells per T75 flask in Complete Medium, containing Hams F12 (GIBCOBRL, Life Technologies) medium supplemented with 10% v/v dialysed foetal bovine serum, L-glutamine, and hygromycin (100 μg ml^−1), 24 hours prior to use. Plasmid DNA was transfected into the cells using Lipofectamine plus according to the manufacturers guidelines (InVitrogen). 48 hours post transfection cells were placed into complete medium supplemented with 500 μg ml^−1 Zeocin™.
10-14 days post selection 10 nM Mifepristone (InVitrogen), was added to the culture medium to induce the expression of the receptor. […] Approximately 1×10e7 cells were examined for receptor expression by staining with a rabbit polyclonal antibody, 4a, raised against the N-terminal domain of the histamine H3 receptor, incubated on ice for 60 minutes, followed by two washes in sorting medium. […] Following two further washes with Sorting Medium, cells were filtered through a 50 μm Filcon™ (BD Biosciences) and then analysed on a FACS Vantage SE Flow Cytometer fitted with an Automatic Cell Deposition Unit. […] Positively stained cells were sorted as single cells into 96-well plates, containing Complete Medium containing 500 μg ml^−1 Zeocin™ and allowed to expand before reanalysis for receptor expression via antibody and ligand binding studies.
All steps of the protocol are carried out at 4° C. and with pre-cooled reagents. The cell pellet is resuspended in 10 volumes of buffer A2 containing 50 mM N-2-hydroxyethylpiperazine-N′-2-ethanesulfonic acid (HEPES)(pH 7.40) supplemented with 10e−4M leupeptin (acetyl-leucyl-leucyl-arginal; Sigma L2884), 25 μg/ml bacitracin (Sigma B0125), 1 mM ethylenediamine tetra-acetic acid (EDTA), 1 mM phenylmethylsulfonyl fluoride (PMSF) and 2×10e−6M pepstain A (Sigma). The cells are then homogenised by 2×15 second bursts in a 1 litre glass Waring blender, followed by centrifugation at 500 g for 20 minutes. The supernatant is then spun at 48,000 g.for 30 minutes. The pellet is resuspended in 4 volumes of buffer A2 by vortexing for 5 seconds, followed by homogenisation in a Dounce homogeniser (10-15 strokes). At this point the preparation is aliquoted into polypropylene tubes and stored at −70° C. […]
The plate is then incubated on a shaker at room temperature for 30 minutes followed by centrifugation for 5 minutes at 1500 rpm. The plate is read between 3 and 6 hours after completion of centrifuge run in a Wallac Microbeta counter on a 1 minute normalised tritium count protocol. Data is analysed using a 4-parameter logistic equation. Basal activity used as minimum i.e. histamine not added to well.
Background: GTPγS is a poorly hydrolysed GTP analogue; its binding reports G protein activation.
One may read the Kb as the affinity of an antagonist, worked out from how it opposes an agonist. A high value points to a less potent antagonist. `CC(C)N1CCCN(C(=O)C2CCN(c3ccc(Oc4ccccc4)cc3)CC2)CC1` [Example E61, 1-Isopropyl-4-[1-(4-phenoxyphenyl)-piperidine-4-carbonyl]-[1,4]-diazepane] gave a Kb below 3.16 nM.
In the case of `COc1ccc(N2CCC(C(=O)N3CCCN(C(C)C)CC3)CC2)cn1` [Example E62, 1-Isopropyl-4-[1-(6-methoxypyridin-3-yl)-piperidine-4-carbonyl]-[1,4]-diazepane] it was below 3.16 nM.
`CC(C)N1CCCN(C(=O)C2CCN(c3ccc(C#N)c(F)c3F)CC2)CC1` [Example E63, 1-Isopropyl-4-[1-(4-cyano-2,3-difluorophenyl)-piperidine-4-carbonyl]-[1,4]-diazepane] showed a Kb below 3.16 nM.
The value for `CC(C)N1CCCN(C(=O)C2CCN(c3ccc(C#N)cc3Cl)CC2)CC1` [Example E64, 1-Isopropyl-4-[1-(4-cyano-2-chlorophenyl)-piperidine-4-carbonyl]-[1,4]-diazepane] was below 3.16 nM.
The value for `N#Cc1ccc(N2CCC(C(=O)N3CCCN(C4CCC4)CC3)CC2)c(Cl)c1` [Example E65, 1-Cyclobutyl-4-[1-(4-cyano-2-chlorophenyl)-piperidine-4-carbonyl]-[1,4]-diazepane] was below 3.16 nM.
In the case of `N#Cc1ccc(N2CCC(C(=O)N3CCCN(C4CCC4)CC3)CC2)cc1Cl` [Example E66, 1-Cyclobutyl-4-[1-(4-cyano-3-chlorophenyl)-piperidine4-carbonyl]-[1,4]-diazepane] it was below 3.16 nM; in that of `N#Cc1ccc(N2CCC(C(=O)N3CCCN(C4CCC4)CC3)CC2)cc1F` [Example E67, 1-Cyclobutyl-4-[1-(4-cyano-3-fluorophenyl)-piperidine4-carbonyl]-[1,4]-diazepane], below 3.16 nM; in that of `N#Cc1ccc(N2CCC(C(=O)N3CCCN(C4CCC4)CC3)CC2)cc1C(F)(F)F` [Example E68, 1-Cyclobutyl-4-[1-(4-cyano-3-trifluoromethylphenyl)-piperidine4-carbonyl]-[1,4]-diazepane], below 3.16 nM.
`CC(C)N1CCN(C(=O)C2CCN(c3ccc(C#N)cc3)CC2)C[C@@H]1C` [Example E70, (S)-1-Isopropyl-4-[1-(4-cyanophenyl)-piperidine-4-carbonyl]-2-methylpiperazine] showed a Kb below 3.16 nM.
In the case of `CC(C)N1CCN(C(=O)C2CCN(c3ccc(C#N)nc3)CC2)C[C@@H]1C` [Example E78, (S)-1-Isopropyl-4-[1-(6-cyanopyridin-3-yl)-piperidine-4-carbonyl]-2-methyl piperazine] it was below 3.16 nM.
The value for `CC(C)N1CCN(C(=O)C2CCN(c3ccc(C(F)(F)F)nc3)CC2)C[C@@H]1C` [Example E79, (S)-1-Isopropyl-4-[1-(6-trifluoromethylpyridin-3-yl)-piperidine-4-carbonyl]-2-methyl piperazine] was below 1 nM; that for `CC(C)N1CCN(C(=O)C2CCN(c3ccc(C#N)cn3)CC2)C[C@@H]1C` [Example E86, (S)-1-Isopropyl-4-[1-(5-cyanopyridin-2-yl)-piperidine4-carbonyl]-2-methyl piperazine] was below 3.16 nM.
As to `CC(C)N1CCN(C(=O)C2CCN(c3cnc(C(F)(F)F)cn3)CC2)C[C@@H]1C` [Example E87, (S)-1-Isopropyl-4-[1-(5-trifluoromethyl-pyrazin-2-yl)-piperidine4-carbonyl]-2-methyl piperazine], the antagonist dissociation constant (Kb) was below 3.16 nM.
The value for `CC(C)N1CCN(C(=O)C2CCN(c3ccc(C(F)(F)F)nn3)CC2)C[C@@H]1C` [Example E88, (S)-1-Isopropyl-4-[1-(6-trifluoromethyl-pyridazin-3-yl)-piperidine-4-carbonyl]-2-methyl piperazine] was below 3.16 nM.
The compound `CC(C)N1CCN(C(=O)C2CCN(c3ccc(-c4nnc(-c5ccccc5)o4)cc3)CC2)CC1` [Example E90, 1-Isopropyl-4-{1-[4-(5-phenyl-1,3,4-oxadiazol-2-yl)phenyl]-piperidine-4-carbonyl} piperazine] gave a Kb below 3.16 nM.
In the case of `CC(C)N1CCN(C(=O)C2CCN(c3ccc4ncccc4c3)CC2)CC1` [Example E91, 1-Isopropyl-4-[1-(quinolin-6-yl)-piperidine4-carbonyl]piperazine] it was below 3.16 nM.
The value for `CC(C)N1CCN(C(=O)C2CCN(c3ccc(C(F)(F)F)nc3)CC2)CC1` [Example E96, 1-Isopropyl-4-[1-(6-trifluoromethylpyridin-3-yl)-piperidine-4-carbonyl]-piperazine] was below 0.316 nM.
In the case of `O=C(C1CCN(c2ccc(C(F)(F)F)nc2)CC1)N1CCN(C2CCC2)CC1` [Example E97, 1-Cyclobutyl-4-[1-(6-trifluoromethylpyridin-3-yl)-piperidine-4-carbonyl]piperazine] it was below 3.16 nM.
Regarding `CC(C)N1CCN(C(=O)C2CCN(c3cnc(C(F)(F)F)cn3)CC2)CC1` [Example E102, 1-Isopropyl-4-[1-(5-trifluoromethyl-pyrazin-2-yl)-piperidine4-carbonyl]-piperazine], the antagonist dissociation constant (Kb) is below 3.16 nM.
In the case of `CC[C@H](C)N1CCN(C(=O)C2CCN(c3ccc(C#N)cc3)CC2)CC1` [Example E104], the Kb was below 3.16 nM.
In the case of `CC(C)N1CCN(C(=O)C2CCN(c3ccc(C(=O)C4CC4)cc3)CC2)CC1` [Example E105, 1-Isopropyl-4-[1-(4-cyclopropylcarbonylphenyl)-piperidine4-carbonyl]-piperazine] it was below 3.16 nM.
In the case of `Cc1ccc2cc(N3CCC(C(=O)N4CCN(C(C)C)CC4)CC3)ccc2n1` [Example E118, 1-Isopropyl-4-[1-(2-methyl-quinolin-6-yl)-piperidine-4-carbonyl]-piperazine] it was below 3.16 nM.
Compound `CC(C)N1CCN(C(=O)C2CCN(c3ccc(C#N)nc3)CC2)CC1` [Example E129, 1-Isopropyl-4-[1-(6-cyano-pyridin-3-yl)-piperidine-4-carbonyl]-piperazine] had a Kb below 3.16 nM.
The value for `CC(C)N1CCCN(C(=O)C2CCN(c3ccc(C(F)(F)F)nc3)CC2)CC1` [Example E135, 1-Isopropyl-4-[1-(6-trifluoromethylpyridin-3-yl)-pipenidine-4-carbonyl]-[1,4]-diazepane, hydrochloride] was below 0.316 nM; that for `O=C(C1CCN(c2ccc(C(F)(F)F)nc2)CC1)N1CCCN(C2CCC2)CC1` [Example E136, 1-Cyclobutyl-4-[1-(6-trifluoromethylpyridin-3-yl)-piperidine4-carbonyl]-[1,4]-diazepane] was below 3.16 nM; that for `N#Cc1cc(N2CCC(C(=O)N3CCCN(C4CCC4)CC3)CC2)ccn1` [Example E137, 1-Cyclobutyl-4-[1-(2-cyanopyridin-4-yl)-piperidine-4-carbonyl]-[1,4]-diazepane] was below 3.16 nM.
For the compound `CC(C)N1CCCN(C(=O)C2CCN(c3ccc(C(F)(F)F)nn3)CC2)CC1` [Example E138, 1-Isopropyl-4-[1-(6-trifluoromethylpyridazin-3-yl)-piperidine-4-carbonyl]-[1,4]-diazepane], the Kb was below 3.16 nM.
In the case of `CC(C)N1CCCN(C(=O)C2CCN(c3cnc(C(F)(F)F)cn3)CC2)CC1` [Example E139, 1-Isopropyl-4-[1-(5-trifluoromethylpyrazin-2-yl)-piperidine4-carbonyl]-[1,4]-diazepane] it was below 3.16 nM; in that of `CC(=O)c1ccc(N2CCC(C(=O)N3CCCN(C(C)C)CC3)CC2)cc1` [Example E150, 1-Isopropyl-4-[1-(4-acetylphenyl)-piperidine-4-carbonyl]-[1,4]-diazepane], below 1 nM; in that of `CCC(=O)c1ccc(N2CCC(C(=O)N3CCCN(C(C)C)CC3)CC2)cc1` [Example E151, 1-Isopropyl-4-[1-(4-propanoylphenyl)-piperidine-4-carbonyl]-[1,4]-diazepane], below 1 nM.
In the case of `Cc1ncc(-c2ccc(N3CCC(C(=O)N4CCCN(C(C)C)CC4)CC3)cc2)o1` [Example E154, 1-Isopropyl-4-{1-[4-(2-methyl-1,3-oxazol-5-yl)phenyl]-piperidine4-carbonyl}-[1,4]-diazepane] it was below 3.16 nM.
